Source: paper PMC4492750, “The discovery of a selective and potent A2a agonist with extended lung retention” (Pharmacology Research & Perspectives, 2015)
Values joined by “and” are separate entries in the source; they are usually repeats but may differ in a detail not shown here. Equal values may be shown once. Read-outs that look alike come from different tables or passages of the source.

Experiments:
[1] = tested on: LPS-induced TNFα production in rat splenocytes; experiment: LPS-induced TNFα production in rat mononuclear spleen cells (rTNFα splenocytes); assay type: cell-based; conditions: Splenocyte
Protocol: (§1) • Human A2a and A2b receptor pharmacology: Chinese hamster ovary CHO-K1 cells stably expressing human A2a and A2b receptors were used to determine substances agonistic potency and intrinsic activity. […] The signal corresponding to adenosine at 100 μmol/L was used to define 100% intrinsic activity. • Human A3 receptor pharmacology: A3 receptor Gi coupling was measured by GTPγ ^35[S] filter assay at serial dilutions of compound using membranes from Perkin-Elmer. The signal corresponding to the maximal response of NECA at 100 μmol/L was set to 100% intrinsic activity. • Lipopolysaccharide (LPS)-induced TNFα production in primary human peripheral blood mononuclear cells (hTNFα PBMC) and rat mononuclears (rTNFα splenocytes): Human PBMC and rat mononuclear spleen cells were incubated with serial dilutions of compound and stimulated with LPS.
Procedures and assays were run in R10 buffer (RPMI 1640 Medium supplemented with GlutaMAX™ and HEPES (GIBCO-BRL), 10% fetal calf serum, penicillin and streptomycin (each 5000IU/ml)). Human PBMC were purified from heparinised blood by Ficoll separation (Ficoll, Amersham Pharmacia Biotech AB, Cat: 17-1440-03, Lot: 312170) and rat mononuclear cells were collected after rat spleen perfusion. Both cell preparations were followed by hypotonic lysis of residual erythrocytes. Serial dilutions of compounds were pre-incubated with 200 000 cells/well (96-well plate) for 45min in 37 °C (190µl). Cells were stimulated by 10µl LPS (final concentration 0.5ng/ml human and 150ng/ml rat; SIGMA Cat: L-4516, Lot: 104K4036) for 18h at 37 °C. TNFα release was measured by ELISA (^TmR&D Systems plates) according to the manufacturer’s instructions in cell free supernatant.

[2] = Plasma protein binding by equilibrium dialysis; assay type: in vitro ADME; conditions: male, Wistar, pH 7.4, rat plasma, 10 μmol/L, read-out: fu rat (free unbound drug in plasma)
Protocol: as §1
The plasma protein binding was determined in plasma from male Wistar rats at a compound concentration of 10μM by equilibrium dialysis against a phosphate buffer at pH 7.4 using a semi-permeable membrane with a molecular cut-off of 6-8KDa (Spectra/Por, Spectrum Laboratories Inc, US). The compounds were dialyzed for 18h at 37±1°C in an air incubator on an orbital shaker. The samples were analysed using LC-MS/MS.

[3] = Lipophilicity (LogD), shake flask; assay type: physicochemical; conditions: 1-octanol / phosphate buffer, octanol-water, phosphate buffer pH 7.4
Protocol: as §1
The octanol-water partition coefficient (LogD) was measured using the shake flask method. 600µL of 1-octanol was added to a vial with 6µL of 10mM DMSO-solution of the test compound. 600µL of 10mM sodium phosphate buffer adjusted to pH 7.4 was added and equilibrium was performed by vigorous shaking for ten minutes with an Eppendorf mixer. The phases were separated by centrifugation. The samples were analysed by HPLC with UV-detection at 254nm.

[4] = tested on: mean arterial blood pressure and heart rate; experiment: Swivel study: four-step i.v. infusion in conscious rats, PK-PD of MAP and HR; assay type: in vivo, rat; parameters: Emax,MAP (maximum compound 2-induced decrease in MAP) / Emax,HR (maximum compound 2-induced increase in HR): unit not given here; conditions: for EC50: rat plasma concentration
Protocol: The relationship between plasma concentrations of compound 2 and mean arterial pressure (MAP) and HR, respectively, were modeled using data generated in the swivel study, including data from start of first infusion up to 2 h after end of last infusion (Dose 1–4, equivalent to 1.9, 11, 67 and 410 μg/kg per min for 15 min at each step). The baseline value, calculated as average of measurements during the 60 min baseline recording period was used as the predose value. Temporal differences between effect measurements and blood sampling for plasma analysis were accounted for by fitting a standard two-compartment PK model to the time-concentration profile for each individual animal, and subsequently using the individual parameter estimates to simulate compound 2 plasma concentrations at the times of effect measurements. Phoenix® WinNonlin® Version 6.2.1 (Certara, L.P., Princetown, NJ) was used for modelling.
A 4-step intravenous infusion protocol was performed during continuous recording of the arterial blood pressure signal and intermittent blood sampling in seven conscious rats the day after surgical implantation of an arterial line in the abdominal aorta via the caudal artery and a venous line in the jugular vein. After a baseline recording of 60 minutes, compound 2 was given in 15-minute constant infusion steps of 1.9, 11, 67 and 410μg/kg/min (0.034-0.2ml/kg/min) followed by a washout period of 120 minutes. One rat was monitored under the same conditions as a time-matched control. Blood samples for analysis of drug exposure were taken at the end of each dose step and intermittently during the washout.

A3 = biological target: T1, A3 (Homo sapiens, UniProt P0DMS8); experiment: Selectivity panel of 98 targets in binding assays (Ricerca): A3; parameters: Ricerca (contract panel); conditions: 10 μmol/L of compound; data on AstraZeneca file
T1 sequence (P0DMS8 1-318): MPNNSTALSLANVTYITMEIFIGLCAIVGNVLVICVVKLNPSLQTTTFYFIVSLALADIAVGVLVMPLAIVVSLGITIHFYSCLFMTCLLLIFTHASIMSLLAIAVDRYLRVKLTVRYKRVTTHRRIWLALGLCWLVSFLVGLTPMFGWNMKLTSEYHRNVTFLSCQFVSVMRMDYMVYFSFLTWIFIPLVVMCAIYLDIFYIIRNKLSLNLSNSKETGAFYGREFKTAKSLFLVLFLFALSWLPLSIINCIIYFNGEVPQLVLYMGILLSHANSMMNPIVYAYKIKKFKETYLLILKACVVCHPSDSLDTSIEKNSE
Protocol: The medicinal chemistry synthetic optimization focused on the position C2 and N6 (Fig.2) with the aim to discover a compound with high A2a potency, high selectivity, low lipophilicity (logD), and high solubility. […] Selectivity of compound 2 was tested across 98 targets in binding assays (www.ricerca.com). The only identified significant hits (i.e., >50% effect at 10 μmol/L of compound 2) were A2a (∼100%) and A3 (∼84%) data on AstraZeneca file.

[5] = calculated from PK-PD relationships
[6] = conscious rats, 2 h after end of four-step i.v. infusion

## CCNC(=O)[C@H]1O[C@@H](n2cnc3c(NC(CC)CC)nc(NCCNC(=O)Nc4cc[n+](C)cc4)nc32)[C@H](O)[C@@H]1O [Compound 2, (2S,3S,4R,5R)-N-ethyl-5-[6-(1-ethylpropylamino)-2-[2-[(1-methylpyridin-1-ium-4-yl)carbamoylamino]ethylamino]purin-9-yl]-3,4-dihydroxy-tetrahydrofuran-2-carboxamide]
[1]; Rattus norvegicus, read-out: EC50, inhibition of LPS stimulated TNFα release in rat splenocytes
  EC50: 600 pM
[1]; LPS-stimulated TNFα release, rat splenocytes, average (SD)
  IC50: 600 pM
[1]; LPS-stimulated TNFα release, rat splenocytes, average (SD), read-out: rTNFα splenocytes Intrinsic activity
  Emax: 57.4%
[2]
  fraction unbound at 18 h, 10 μM: 0.44
[3]
  logD at 10 min: < -1
[4]; 0.3 nmol/L vs 2-4 nmol/L at 10 μg/kg i.t.
  Concentration for 10% MAP decrease relative to plasma concentration at effective dose (fold lower): 10 fold
[4]; PK-PD model of MAP, mean ± SD
  kE0 (first-order rate constant, effect compartment): 0.058 ± 0.039 min⁻¹
[4]; Rattus norvegicus, iv, sigmoid Emax model, mean ± SD, read-out: EC50,MAP (plasma concentration that induces half the maximum MAP decrease)
  EC50: 500 pM
[4]; Rattus norvegicus, iv, simple Emax model on mean data, read-out: EC50,HR
  EC50: 180 pM
[4]; [5]
  Plasma concentration that produces 10% increase from baseline HR: 0.04 nM
  Total plasma concentration that causes 10% decrease from baseline MAP: 0.3 ± 0.2 nmol/L and 0.3 nmol/L
[4]; [6]
  Blood pressure 2 h postdosing: 100 ± 7 mmHg
  Heart rate 2 h postdosing: 489 ± 41 bpm
[4]; conscious rats, i.v. infusion 11 μg/kg per min for 15 min, baseline 381 ± 21
  Heart rate at dose 2: 472 ± 33 bpm
[4]; conscious rats, i.v. infusion 67 μg/kg per min for 15 min, baseline 114 ± 9
  Blood pressure at dose 3: 98 ± 9 mmHg
[4]; highest dose (410 μg/kg per min i.v.)
  Core body temperature: significant reduction
[4]; sigmoid Emax model, mean ± SD, read-out: EC50,MAP (plasma concentration that induces half the maximum MAP decrease)
  EC50: 520 ± 160 pM
[4]; sigmoid Emax model, mean ± SD
  Emax,MAP (maximum compound 2-induced decrease in MAP): 37 ± 11
[4]; simple Emax model on mean data
  Emax,HR (maximum compound 2-induced increase in HR): 158
A3
  Effect in binding assay, A3: ~84%
